In the NIST ThermoML archive (doi:10.1016/j.fluid.2008.04.002):
± gives the expanded uncertainty stated by the source.

Settings: Liquid, Closed cell (Static) method

SMILES | vapor or sublimation pressure (253.65 K) [kPa] | vapor or sublimation pressure (258.46 K) [kPa] | vapor or sublimation pressure (263.43 K) [kPa] | vapor or sublimation pressure (263.45 K) [kPa] | vapor or sublimation pressure (268.33 K) [kPa] | vapor or sublimation pressure (273.29 K) [kPa] | vapor or sublimation pressure (273.32 K) [kPa] | vapor or sublimation pressure (278.19 K) [kPa] | vapor or sublimation pressure (283.22 K) [kPa] | vapor or sublimation pressure (283.25 K) [kPa] | vapor or sublimation pressure (288.2 K) [kPa] | vapor or sublimation pressure (288.3 K) [kPa] | vapor or sublimation pressure (290.22 K) [kPa] | vapor or sublimation pressure (291.22 K) [kPa] | vapor or sublimation pressure (292.22 K) [kPa] | vapor or sublimation pressure (293.29 K) [kPa] | vapor or sublimation pressure (313.31 K) [kPa] | vapor or sublimation pressure (333.32 K) [kPa] | vapor or sublimation pressure (353.2 K) [kPa]
FC(F)(F)C(F)(F)F [hexafluoroethane] | 1062.9 ± 2 | 1226.4 ± 2.2 | 1415.3 ± 4.6 | 1415.3 ± 2.5 | 1621.1 ± 2.8 | 1850 ± 3.2 | 1862 ± 6 | 2100.6 ± 3.6 | 2392 ± 7.6 | 2385.8 ± 4.1 | 2697.6 ± 4.6 | 2697.6 ± 8.6 | 2832.9 ± 4.8 | 2903.4 ± 5 | 2976.2 ± 5.1 |  |  |  | 
FCC(F)(F)F [1,1,1,2-tetrafluoroethane] |  |  | 195.7 ± 1 |  |  |  | 287.1 ± 1.2 |  | 407.2 ± 1.5 |  |  | 483.6 ± 1.7 |  |  |  | 566.3 ± 1.9 | 1014.7 ± 3.3 | 1680.4 ± 5.4 | 2636 ± 8.3
